Measurements: US6727066B2, “Genes expressed in treated human C3A liver cell cultures” (Incyte Corporation, priority 2000, dated 2004)

Tested on: human C3A liver cell cultures
Test: Microarray differential expression of cDNAs in treated human C3A liver cell cultures
Type: cell-based
Details: change vs untreated C3A cells
Source text: Incyte clones represent template sequences derived from the LIFESEQ GOLD assembled human sequence database (Incyte Genomics). In cases where more than one clone was available for a particular template, the 5′-most clone in the template was used on the microarray. The GENEALBUM GEM series 1-6 microarrays (Incyte Genomics) contain 52,616 array elements which represent 17,472 annotated clusters and 35,144 unannotated clusters. The HUMAN GENOME GEM series 1-3 microarrays (Incyte Genomics) contain 28,626 array elements which represent 10,068 annotated clusters and 18,558 unannotated clusters. For the UNIGEM series microarrays (Incyte Genomics), Incyte clones were mapped to non-redundant Unigene clusters (Unigene database (build 46), NCBI; Shuler (1997) J Mol Med 75:694-698), and the 5′ clone with the strongest BLAST alignment (at least 90% identity and 100 bp overlap) was chosen, verified, and used in the construction of the microarray. The UNIGEM V microarray (Incyte Genomics) contains 7075 array elements which represent 4610 annotated genes and 2,184 unannotated clusters.
To construct microarrays, cDNAs were amplified from bacterial cells using primers complementary to vector sequences flanking the cDNA insert. […] Amplified cDNAs were then purified using […]-400 columns (APB). Purified cDNAs were immobilized on polymer-coated glass slides. Glass microscope slides (Corning, Corning N.Y.) were cleaned by ultrasound in 0.1% SDS and acetone, with extensive distilled water washes between and after treatments. Glass slides were etched in 4% hydrofluoric acid (VWR Scientific Products, West Chester Pa.), washed thoroughly in distilled water, and coated with 0.05% aminopropyl silane (Sigma Aldrich) in 95% ethanol. Coated slides were cured in a 110° C. oven. cDNAs were applied to the coated glass substrate using a procedure described in U.S. Pat. No. 5,807,522. One microliter of the cDNA at an average concentration of 100 ng/ul was loaded into the open capillary printing element by a high-speed robotic apparatus which then deposited about 5 nl of cDNA per slide.
Microarrays were UV-crosslinked using a […] UV-crosslinker (Stratagene), and then washed at room temperature once in 0.2% SDS and three times in distilled water. Non-specific binding sites were blocked by incubation of microarrays in 0.2% casein in phosphate buffered saline (Tropix, Bedford Mass.) for 30 minutes at 60° C. followed by washes in 0.2% SDS and distilled water as before.
Early confluent C3A cells (ATTC, Manassas Va.) were treated with captopril (0.5, 2, 48, and 60 μg/ml) for 1, 3, and 6 hours. Early confluent C3A cells were treated with enalapril (0.5, 2, 48, and 60 μg/ml) for 1, 3, and 6 hours. Early confluent C3A cells were treated with LY294002 (0.5, 2, 15, and 25 μg/ml) for 1, 3, and 6 hours. Early confluent C3A cells were starved of insulin for 3 days prior to treatment, then treated with LY294002 (10 μM) for 2, 24, 36, and 72 hours in the presence of insulin. Early confluent C3A cells were treated with DES (1, 10, and 100 μM) for 1, 3, and 6 hours. Early confluent C3A cells were treated with dexamethasone (1 and 20 μM) for 0, 2, 6, and 24 hours. Early confluent C3A cells were treated with MCA (0.5 and 10 μM) for 2, 6, and 24 hours. In all cases mRNA from untreated early confluent cells were prepared in parallel as described below.
Cells were harvested and lysed in 1 ml of TRIZOL reagent (5×10^6 cells/ml; Life Technologies). The lysates were vortexed thoroughly and incubated at room temperature for 2-3 minutes and extracted with 0.5 ml chloroform. The extract was mixed, incubated at room temperature for 5 minutes, and centrifuged at 15,000 rpm for 15 minutes at 4° C. The aqueous layer was collected and an equal volume of isopropanol was added.

In the case of `O=c1cc(N2CCOCC2)oc2c(-c3ccccc3)cccc12` [LY294002], the “expression level of cDNA clone 172023” value is reported as −3.38, the “expression level of cDNA clone 279898” value is reported as 6.7 and the “expression level of cDNA clone 459372” value is reported as 4.65. For the same compound, the “expression level of cDNA clone 1315663” value was −3.27, the “expression level of cDNA clone 1468660” value was −2.28 and the “expression level of cDNA clone 1975268” value was −3.45. For the same compound, the “expression level of cDNA clone 1998269” value was −2.46, the “expression level of cDNA clone 2769888” value was −3.37 and the “expression level of cDNA clone 3427373” value was 4.2. For the same compound, the “expression level of cDNA clone 3715059” value was −4.3 and the “expression level of cDNA clone 4556538” value was 2.45.

`CCOC(=O)C(C)(C)Oc1ccc(Cl)cc1` [Clofibrate] was tested, and the “expression level of cDNA clone 63038” value was −3.95, the “expression level of cDNA clone 86390” value was −2.83 and the “expression level of cDNA clone 118501” value was 4.87. For the same compound, the “expression level of cDNA clone 280932” value was −2.8, the “expression level of cDNA clone 341884” value was −2.32 and the “expression level of cDNA clone 348143” value was 2.11. The “expression level of cDNA clone 407032” value was −3.05, the “expression level of cDNA clone 460779” value was 2.26 and the “expression level of cDNA clone 630625” value was 2.53. For the same compound, the “expression level of cDNA clone 758192” value was 3.11, the “expression level of cDNA clone 818192” value was 2.87 and the “expression level of cDNA clone 1308112” value was 2.19. The “expression level of cDNA clone 1315663” value was −3.18, the “expression level of cDNA clone 1379063” value was −2.38 and the “expression level of cDNA clone 1448718” value was −2.95. For the same compound, the “expression level of cDNA clone 1464613” value was −2.39, the “expression level of cDNA clone 1511658” value was −3.56 and the “expression level of cDNA clone 1519683” value was −2.12. The “expression level of cDNA clone 1559665” value was −4.058, the “expression level of cDNA clone 1619292” value was −3.07 and the “expression level of cDNA clone 1696224” value was 11.91. For the same compound, the “expression level of cDNA clone 1705208” value was 4.2, the “expression level of cDNA clone 1711151” value was 2.4 and the “expression level of cDNA clone 1838114” value was −2.65. For the same compound, the “expression level of cDNA clone 1845046” value was −2.5, the “expression level of cDNA clone 1846463” value was 3.62 and the “expression level of cDNA clone 1890791” value was 2.7. For the same compound, the “expression level of cDNA clone 1920215” value was −2.59, the “expression level of cDNA clone 1922468” value was 3.03 and the “expression level of cDNA clone 1926883” value was 2.94. The “expression level of cDNA clone 1930235” value was 2.73, the “expression level of cDNA clone 1958226” value was −2.52 and the “expression level of cDNA clone 1966517” value was −2.8. For the same compound, the “expression level of cDNA clone 1969563” value was 3.78, the “expression level of cDNA clone 1998269” value was 2.7 and the “expression level of cDNA clone 2042056” value was 2.5. For the same compound, the “expression level of cDNA clone 2055569” value was −2.76, the “expression level of cDNA clone 2123516” value was 8.29 and the “expression level of cDNA clone 2273944” value was 2.48. For the same compound, the “expression level of cDNA clone 2278688” value was −2.37, the “expression level of cDNA clone 2352645” value was 3.77 and the “expression level of cDNA clone 2365335” value was −2.67. For the same compound, the “expression level of cDNA clone 2382192” value was −2.54, the “expression level of cDNA clone 2470485” value was −2.45 and the “expression level of cDNA clone 2740665” value was −2.54. For the same compound, the “expression level of cDNA clone 2757583” value was 2.8, the “expression level of cDNA clone 2769888” value was −2.79 and the “expression level of cDNA clone 2884613” value was 2.54. The “expression level of cDNA clone 2890336” value was −2.38, the “expression level of cDNA clone 2921991” value was −3.1 and the “expression level of cDNA clone 2933775” value was 4. For the same compound, the “expression level of cDNA clone 2957205” value was 2.94, the “expression level of cDNA clone 2999855” value was 2.4 and the “expression level of cDNA clone 3038508” value was 2.57. The “expression level of cDNA clone 3136857” value was −3.24, the “expression level of cDNA clone 3222802” value was 2.71 and the “expression level of cDNA clone 3380034” value was −3.15. The “expression level of cDNA clone 3494714” value was −2.53, the “expression level of cDNA clone 4066764” value was −2.3 and the “expression level of cDNA clone 4087621” value was −3.55. For the same compound, the “expression level of cDNA clone 4110976” value was 2.18, the “expression level of cDNA clone 4246966” value was 8.12 and the “expression level of cDNA clone 4287327” value was −3.47. For the same compound, the “expression level of cDNA clone 4721130” value was 4.25, the “expression level of cDNA clone 4795635” value was −2.38 and the “expression level of cDNA clone 5047895” value was −2.44. For the same compound, the “expression level of cDNA clone 5077219” value was −2.63, the “expression level of cDNA clone 5398014” value was −2.67 and the “expression level of cDNA clone 5398701” value was −3.55. For the same compound, the “expression level of cDNA clone 5541949” value was 2.38.

In the case of `CC/C(=C(/CC)c1ccc(O)cc1)c1ccc(O)cc1` [DES, Diethylstilbestrol], the “expression level of cDNA clone 60123” value is reported as 2.6, the “expression level of cDNA clone 172023” value is reported as 2.85 and the “expression level of cDNA clone 437481” value is reported as 2.24. The “expression level of cDNA clone 443991” value was 2.62, the “expression level of cDNA clone 510056” value was 2.73 and the “expression level of cDNA clone 891322” value was 3.81. The “expression level of cDNA clone 970905” value was 2.25, the “expression level of cDNA clone 1272483” value was 2.51 and the “expression level of cDNA clone 1326255” value was −2.7. The “expression level of cDNA clone 1956982” value was −2.13, the “expression level of cDNA clone 2055867” value was 2.97 and the “expression level of cDNA clone 2241825” value was −2.39. The “expression level of cDNA clone 2311213” value was −2.34, the “expression level of cDNA clone 2545486” value was −2.49 and the “expression level of cDNA clone 2550767” value was 2.1. For the same compound, the “expression level of cDNA clone 2956444” value was 2.1, the “expression level of cDNA clone 3222802” value was 2.4 and the “expression level of cDNA clone 4019706” value was 2.99. For the same compound, the “expression level of cDNA clone 4287327” value was 2.66, the “expression level of cDNA clone 4715924” value was −2.21 and the “expression level of cDNA clone 5293028” value was −2.3. The “expression level of cDNA clone 5399371” value was −2.63, the “expression level of cDNA clone 293477” value (table row r18) was 2.83 and the “expression level of cDNA clone 293477” value (table row r23) was 2.
